We go through five compounds from patent publication US7598206B2, “Fungicidal mixtures” (BASF Aktiengesellschaft, priority 2004, dated 2009).

Common to all, as to type: in vivo
The test system of assay [1] is Botrytis cinerea. As to the kind of experiment: Use example 1: activity against gray mold on bell pepper leaves, 1 day protective application. Conditions: efficacy in % of untreated control (Abbot), sprayed 1 day before inoculation, rated after 5 days, read-out: Observed activity (%). How it is done: (§1) The active compounds were prepared jointly or separately as a stock solution with 25 mg of active compound which was made up to 10 ml using a mixture of acetone and/or DMSO and the emulsifier Uniperol® EL (wetting agent having emulsifying and dispersing action based on ethoxylated alkylphenols) in a volume ratio of solvent/emulsifier of 99 to 1. The mixture was then made up with water to 100 ml. This stock solution was diluted with the solvent/emulsifier/water mixture described to the concentration of active compounds stated below.
(§2) The active compounds epoxiconazole and pyraclostrobin were used as commercial formulations and diluted with water to the stated concentration.
(§3) The visually determined percentages of infected leaf areas were converted into efficacies in % of the untreated control:
(§4) The efficacy (E) is calculated as follows using Abbot's formula: E=(1−α/β)·100 • α corresponds to the fungicidal infection of the treated plants in % and • β corresponds to the fungicidal infection of the untreated (control) plants in % […]
(§5) The expected efficacies of mixtures of active compounds were determined using Colby's formula (Colby, S. R. “Calculating synergistic and antagonistic responses of herbicide combinations”, Weeds, 15, 1967, p. 20-22) and compared with the observed efficacies. […]

The subject of assay [2] is Botrytis cinerea. As to the kind of experiment: Use example 2: activity against gray mold on bell pepper leaves, 5 day protective application. Conditions: sprayed 5 days before inoculation, read-out: Observed activity (%). How it is done: as §1, §2, §3
The efficacy (E) is calculated as follows using Abbot's formula: E=(1−α/β)·100 • α corresponds to the fungicidal infection of the treated plants in % and • β corresponds to the fungicidal infection of the untreated (control) plants in %
An efficacy of 0 means that the infection level of the treated plants corresponds to that of the untreated control plants; an efficacy of 100 means that the treated plants were not infected.
The expected efficacies of mixtures of active compounds were determined using Colby's formula (Colby, S. R. “Calculating synergistic and antagonistic responses of herbicide combinations”, Weeds, 15, 1967, p. 20-22) and compared with the observed efficacies.
Colby's formula: E=x+y−x·y/100 • E expected efficacy, expressed in % of the untreated control, when using the mixture of the active compounds A and B at the concentrations a and b • x efficacy, expressed in % of the untreated control, when using the active compound A at the concentration a • y efficacy, expressed in % of the untreated control, when using the active compound B at the concentration b
Use example 2-activity against gray mold on bell pepper leaves caused by Botrytis cinerea, 5 day protective application
Bell pepper seedlings of the cultivar “Neusiedler Ideal Elite” were, after 2-3 leaves were well developed, sprayed to runoff point with an aqueous suspension having the active compound concentration given below. After 5 days, the treated plants were inoculated with a spore suspension of Botrytis cinerea which comprised 1.7×10^6 spores/ml in a 2% strength aqueous biomalt solution. The test plants were then placed in a dark climatized chamber at 22 to 24° C. and high atmospheric humidity. After 5 days, the extent of the fungal infection on the leaves could be determined visually in %.

The next assay concerns Alternaria solani. As to the kind of experiment: Use example 3: 5 day protective activity against early blight of tomato. Conditions: sprayed 5 days before infection, rated after 5 days, read-out: Observed activity (%). As to the method: as §1, §2, §3, §4, §5

Turning to `Fc1ccc([C@]2(Cn3cncn3)O[C@H]2c2ccccc2Cl)cc1` (racemic) [epoxiconazole (A7), (2RS,3SR)-1-[3-(2-chlorophenyl)-2,3-epoxy-2-(4-fluorophenyl)propyl]-1H-1,2,4-triazole], the inhibition at 4 ppm in the assay on Botrytis cinerea [1] was 0%.

`CN1OC(c2ccc(Cl)cc2)CC1(C)c1cccnc1` (centres unmarked) [SYP-Z048 (I)]: the inhibition at 4 ppm with Botrytis cinerea [1] was determined as 70%. Besides, the inhibition at 16 ppm in the assay with Botrytis cinerea [2] (16 ppm, rated after 5 days) amounted to 0%. Also, in the assay on Alternaria solani (1 ppm), the inhibition at 1 ppm was 0%.

Take `O=C(Nc1ccccc1-c1ccc(Cl)cc1)c1cccnc1Cl` [boscalid (C3), 2-chloro-N-(4′-chlorobiphenyl-2-yl)nicotinamide]: the figures for the inhibition at 4 ppm with Botrytis cinerea [2] (4 ppm) and in the assay with Alternaria solani (4 ppm) were 0% and 56%, respectively.

As to `COC(=O)N(OC)c1ccccc1COc1ccn(-c2ccc(Cl)cc2)n1` [pyraclostrobin (B9), methyl N-{2-[1-(4-chlorophenyl)-1H-pyrazol-3-yloxymethyl]phenyl}(N-methoxy)carbamate], the inhibition at 63 ppm with Botrytis cinerea [2] (63 ppm, commercial formulation) came out at 20%.

Take `Cc1ccc(N(SC(F)(Cl)Cl)S(=O)(=O)N(C)C)cc1` [tolylfluanid (F29), N-dichlorofluoromethylthio-N′,N′-dimethyl-N-p-tolylsulfamide]: the inhibition at 250 ppm in the assay on Botrytis cinerea [2] (250 ppm) stood at 20%.
